Data from ChEMBL document CHEMBL1139995, “SAR of the arylpiperazine moiety of obeline somatostatin sst1 receptor antagonists” (Bioorg Med Chem Lett, 2007).

How the values were obtained:
[1] = target: Somatostatin receptor type 2 (Rattus norvegicus, UniProt P30680); assay: Displacement of [125I]SRIF14 from rat sst2 receptor from rat brain cortex membrane
[2] = target: Somatostatin receptor type 1 (Rattus norvegicus, UniProt P28646); assay: Displacement of [125I]SRIF14 from rat sst1 receptor from rat brain cortex membrane
[3] = Ratio of drug level in brain to plasma in mouse at 10 mg/kg, po after 1 hr; type: ADME, organism-based; set-up: dose 10 mg/kg, route oral; settings: brain and plasma, read-out: BPR
Rattus norvegicus [4] = organism: Rattus norvegicus; assay: Selectivity for rat sst1 receptor over rat sst2 receptor
[5] = Oral bioavailability in rat at 10 mg/kg; type: ADME, organism-based; settings: in vivo
[6] = Ratio of drug level in brain to plasma in rat at 10 to 100 mg/kg, po after 90 mins; type: ADME, organism-based; set-up: dose 10-100 mg/kg, route oral; settings: brain and plasma, read-out: BPR
Rattus norvegicus [7] = assay: Volume of distribution at steady state in rat at 10 mg/kg, po; type: ADME, organism-based; set-up: dose 10 mg/kg, route oral; settings: in vivo
[8] = Clearance in rat at 10 mg/kg, po; type: ADME, organism-based; set-up: dose 10 mg/kg, route oral; settings: in vivo

Sequence of Somatostatin receptor type 2 (P30680 whole entry): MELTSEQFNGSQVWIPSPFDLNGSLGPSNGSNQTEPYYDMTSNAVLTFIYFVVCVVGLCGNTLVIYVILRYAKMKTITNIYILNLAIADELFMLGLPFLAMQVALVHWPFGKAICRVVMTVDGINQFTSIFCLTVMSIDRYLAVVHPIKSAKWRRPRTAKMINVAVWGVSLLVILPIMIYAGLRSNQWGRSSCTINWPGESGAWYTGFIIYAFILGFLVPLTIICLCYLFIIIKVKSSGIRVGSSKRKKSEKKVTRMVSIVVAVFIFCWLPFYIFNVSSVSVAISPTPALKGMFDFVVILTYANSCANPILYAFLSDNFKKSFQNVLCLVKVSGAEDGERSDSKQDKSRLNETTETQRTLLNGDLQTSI
Sequence of Somatostatin receptor type 1 (P28646 whole entry): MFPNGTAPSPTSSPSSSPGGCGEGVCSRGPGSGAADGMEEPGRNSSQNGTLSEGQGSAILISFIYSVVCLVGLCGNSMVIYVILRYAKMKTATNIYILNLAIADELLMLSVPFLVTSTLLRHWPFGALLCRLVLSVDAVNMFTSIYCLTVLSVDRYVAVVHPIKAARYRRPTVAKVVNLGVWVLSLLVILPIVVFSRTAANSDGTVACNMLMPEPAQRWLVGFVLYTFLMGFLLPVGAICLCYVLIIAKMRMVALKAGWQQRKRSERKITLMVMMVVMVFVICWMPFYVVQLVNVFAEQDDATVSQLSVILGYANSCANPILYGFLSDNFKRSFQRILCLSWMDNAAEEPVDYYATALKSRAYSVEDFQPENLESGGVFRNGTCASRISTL

Row | SMILES | Kd [1] [nM] | Kd [2] [nM] | further results
1 | COc1cccc2c1C[C@H]1C[C@@H](C(=O)N3CC=C(c4ccccn4)CC3)CN(C)[C@@H]1C2 | 2340 | 30.2 | 
2 | COc1cccc2c1C[C@H]1C[C@@H](C(=O)N3CCN(c4ccc5nsnc5c4)CC3)CN(C)[C@@H]1C2 | 4270 | 10.7 | Kp at 1 h [3]: 4.8
3 | COc1cccc2c1C[C@H]1C[C@@H](C(=O)N3CC=C(c4ncccn4)CC3)CN(C)[C@@H]1C2 | 2400 | 490 | 
4 | COc1cccc2c1C[C@H]1C[C@@H](C(=O)N3CCN(c4ccc5ccccc5n4)CC3)CN(C)[C@@H]1C2 | 2090 | 27.5 | 
5 | COc1cccc2c1C[C@H]1C[C@@H](C(=O)N3CCN(c4ccc5nsnc5n4)CC3)CN(C)[C@@H]1C2 | 5750 | 1.23 | Kp at 1 h [3]: 1.8; Selectivity ratio (Rattus norvegicus [4]): > 4600
6 | COc1cccc2c1C[C@H]1C[C@@H](C(=O)N3CCN(c4ncccn4)CC3)CN(C)[C@@H]1C2 | 27500 | 468 | 
7 | COc1cccc2c1C[C@H]1C[C@@H](C(=O)N3CCN(c4ccc(C(F)(F)F)cc4)CC3)CN(C)[C@@H]1C2 | 5130 | 275 | 
8 | COc1cccc2c1C[C@H]1C[C@@H](C(=O)N3CCN(c4ccc(C(F)(F)F)cn4)CC3)CN(C)[C@@H]1C2 | 20000 | 105 | 
9 | COc1cccc2c1C[C@H]1C[C@@H](C(=O)N3CCN(c4cc5nccnc5cn4)CC3)CN(C)[C@@H]1C2 | 7080 | 355 | 
10 | COc1cccc2c1C[C@H]1C[C@@H](C(=O)N3CCN(c4cc5ccccc5cn4)CC3)CN(C)[C@@H]1C2 | 5500 | 288 | 
11 | COc1cccc2c1C[C@H]1C[C@@H](C(=O)N3CCN(c4cccc5ccc(C#N)cc45)CC3)CN(C)[C@@H]1C2 | 5250 | 8.71 | 
12 | COc1cccc2c1C[C@H]1C[C@@H](C(=O)N3CCN(c4ccc5nonc5c4)CC3)CN(C)[C@@H]1C2 | 3470 | 1.7 | 
13 | COC(=O)c1ccc(N2CCN(C(=O)[C@@H]3C[C@@H]4Cc5c(cccc5OC)C[C@H]4N(C)C3)CC2)cc1 | 14800 | 162 | 
14 | COc1cccc2c1C[C@H]1C[C@@H](C(=O)N3CCN(c4ccc5nccn5n4)CC3)CN(C)[C@@H]1C2 | 20900 | 87.1 | 
15 | COc1cccc2c1C[C@H]1C[C@@H](C(=O)N3CCC(n4c(=O)[nH]c5ccccc54)CC3)CN(C)[C@@H]1C2 | 2040 | 490 | 
16 | COc1cccc2c1C[C@H]1C[C@@H](C(=O)N3CCN(c4ccccc4[N+](=O)[O-])CC3)CN(C)[C@@H]1C2 | 11000 | 1.29 | 
17 | COc1cccc2c1C[C@H]1C[C@@H](C(=O)N3CCN(Cc4ccccc4)CC3)CN(C)[C@@H]1C2 | 9120 | 457 | 
18 | COc1cccc2c1C[C@H]1C[C@@H](C(=O)N3CCN(c4ccc(F)cc4)CC3)CN(C)[C@@H]1C2 | 26300 | 3.39 | 
19 | COc1cccc2c1C[C@H]1C[C@@H](C(=O)N3CC=C(c4ccc(Cl)cc4)CC3)CN(C)[C@@H]1C2 | 2510 | 81.3 | 
20 | COc1cccc2c1C[C@H]1C[C@@H](C(=O)N3CCCN(c4ccccn4)CC3)CN(C)[C@@H]1C2 | 34700 | 209 | 
21 | COc1cccc2c1C[C@H]1C[C@@H](C(=O)N3CCN(c4ccc([N+](=O)[O-])cc4S(C)(=O)=O)CC3)CN(C)[C@@H]1C2 | 5250 | 1.74 | 
22 | O=[As][As+](=O)[O-] (stereo not given) [ARSENIC TRIOXIDE] | 25100 | 52.5 | 
23 | COc1cccc2c1C[C@H]1C[C@@H](C(=O)N3CCN(c4cccc(=O)[nH]4)CC3)CN(C)[C@@H]1C2 | 11700 | 7.59 | 
24 | COc1cccc2c1C[C@H]1C[C@@H](C(=O)N3CCN(c4ccc(C(C)=O)cc4)CC3)CN(C)[C@@H]1C2 | 8710 | 151 | 
25 | COc1cccc2c1C[C@H]1C[C@@H](C(=O)N3CCN(c4ccc(S(C)(=O)=O)cc4)CC3)CN(C)[C@@H]1C2 | 8710 | 631 | 
26 | COc1cccc2c1C[C@H]1C[C@@H](C(=O)N3CCN(c4ccc(S(N)(=O)=O)cc4)CC3)CN(C)[C@@H]1C2 | 9120 | 589 | 
27 | COc1cccc2c1C[C@H]1C[C@@H](C(=O)N3CCN(c4cc(C)nc5ccccc45)CC3)CN(C)[C@@H]1C2 | 5250 | 692 | 
28 | COc1cccc2c1C[C@H]1C[C@@H](C(=O)N3CCN(c4cccc(C(F)(F)F)c4)CC3)CN(C)[C@@H]1C2 | 13200 | 23.4 | 

Row | SMILES | Kd [1] [nM] | Kd [2] [nM] | further results
29 | COc1cccc2c1C[C@H]1C[C@@H](C(=O)N3CCN(c4ccc(C(F)(F)F)cc4[N+](=O)[O-])CC3)CN(C)[C@@H]1C2 | 4900 | 110 | 
30 | COc1cccc2c1C[C@H]1C[C@@H](C(=O)N3CCN(c4ccc(C(N)=O)cc4)CC3)CN(C)[C@@H]1C2 | 16600 | 1510 | 
31 | COc1cccc2c1C[C@H]1C[C@@H](C(=O)N3CCN(c4ccccc4C#N)CC3)CN(C)[C@@H]1C2 | 7410 | 2 | 
32 | COc1cccc2c1C[C@H]1C[C@@H](C(=O)N3CCN(c4cccc(F)c4C#N)CC3)CN(C)[C@@H]1C2 | 16600 | 2.82 | 
33 | COc1cccc2c1C[C@H]1C[C@@H](C(=O)N3CCNCC3)CN(C)[C@@H]1C2 | 43700 | 10500 | 
34 | COc1cccc2c1C[C@H]1C[C@@H](C(=O)N3CCN(c4cccc(F)c4)CC3)CN(C)[C@@H]1C2 | 21400 | 3.31 | 
35 | COc1cccc2c1C[C@H]1C[C@@H](C(=O)N3CCN(c4ccc([N+](=O)[O-])cc4)CC3)CN(C)[C@@H]1C2 [OBELIN] | 7760 | 0.708 | bioavailability [5]: 35%; Kp at 1.5 h [6]: 10; Selectivity ratio (Rattus norvegicus [4]): > 10000; Vdss (Rattus norvegicus [7]): 3 L/kg; CL/F [8]: 5 mL/min
36 | COc1cccc2c1C[C@H]1C[C@@H](C(=O)N3CCN(c4ccc(C(=O)O)cc4)CC3)CN(C)[C@@H]1C2 | 251000 | 81300 | 
37 | COc1cccc2c1C[C@H]1C[C@@H](C(=O)N3CCN(c4ccc(F)c(F)c4)CC3)CN(C)[C@@H]1C2 | 16600 | 0.741 | Kp at 1 h [3]: 7.5; Selectivity ratio (Rattus norvegicus [4]): > 22000
38 | COc1cccc2c1C[C@H]1C[C@@H](C(=O)N3CCN(c4ccc(O)cc4)CC3)CN(C)[C@@H]1C2 | 24500 | 631 | 
39 | COc1cccc2c1C[C@H]1C[C@@H](C(=O)N3CCCN(c4ccc([N+](=O)[O-])cc4)CC3)CN(C)[C@@H]1C2 | 22400 | 263 | 
40 | COc1cccc2c1C[C@H]1C[C@@H](C(=O)N3CCN(c4ccc([N+](=O)[O-])cc4C#N)CC3)CN(C)[C@@H]1C2 | 4370 | 3.24 | 
41 | COc1cccc2c1C[C@H]1C[C@@H](C(=O)N3CCN(c4ccccn4)CC3)CN(C)[C@@H]1C2 | 10200 | 17.4 | 
42 | COc1cccc2c1C[C@H]1C[C@@H](C(=O)N3CCN(c4cccc5nsnc45)CC3)CN(C)[C@@H]1C2 | 10000 | 2.75 | 
43 | COc1cccc2c1C[C@H]1C[C@@H](C(=O)N3CCN(c4ccc(C#N)cc4)CC3)CN(C)[C@@H]1C2 | 10000 | 8.13 | 
44 | COc1cccc2c1C[C@H]1C[C@@H](C(=O)N3CCN(c4cccc(=O)n4C)CC3)CN(C)[C@@H]1C2 | 11000 | 1.82 | 
45 | COc1cccc2c1C[C@H]1C[C@@H](C(=O)N3CCc4c([nH]c5ccccc45)C3)CN(C)[C@@H]1C2 | 6170 | 70.8 | 
46 | COc1cccc2c1C[C@H]1C[C@@H](C(=O)N3CCN(c4ccncc4)CC3)CN(C)[C@@H]1C2 | 17800 | 1860 | 
47 | COc1cccc2c1C[C@H]1C[C@@H](C(=O)N3CCN(c4ccccc4F)CC3)CN(C)[C@@H]1C2 | 18600 | 17.8 | 
48 | COc1cccc2c1C[C@H]1C[C@@H](C(=O)N3CCN(c4cccc5ccccc45)CC3)CN(C)[C@@H]1C2 | 5500 | 87.1 | 
49 | COc1cccc2c1C[C@H]1C[C@@H](C(=O)N3CCN(c4cccc([N+](=O)[O-])c4)CC3)CN(C)[C@@H]1C2 | 6760 | 1.32 | 
50 | CCN(CC)C(=O)c1ccc(N2CCN(C(=O)[C@@H]3C[C@@H]4Cc5c(cccc5OC)C[C@H]4N(C)C3)CC2)cc1 | 20000 | 1700 | 
51 | COc1cccc2c1C[C@H]1C[C@@H](C(=O)N3CCN(c4ccc5nccnc5n4)CC3)CN(C)[C@@H]1C2 | 14100 | 5.75 | 
52 | COc1cccc2c1C[C@H]1C[C@@H](C(=O)N3CCN(c4ccc(C#N)cn4)CC3)CN(C)[C@@H]1C2 | 10200 | 3.55 | 
53 | COc1cccc2c1C[C@H]1C[C@@H](C(=O)N3CCN(c4ncccc4OS(=O)(=O)C(F)(F)F)CC3)CN(C)[C@@H]1C2 | 10500 | 562 | 
54 | COc1cccc2c1C[C@H]1C[C@@H](C(=O)N3CCN(c4cccc(OCc5ccccc5)n4)CC3)CN(C)[C@@H]1C2 | 6610 | 105 | 
55 | COc1cccc2c1C[C@H]1C[C@@H](C(=O)N3CCN(c4cccc5nonc45)CC3)CN(C)[C@@H]1C2 | 3630 | 3.63 | 
